Target: T1, EgLCY (Euglena gracilis, UniProt A0A7I8I611)
T1 construct: gene lcy; full-length open reading frame in pETDuet-1 (pET-EgLCY, NcoI In-Fusion), expressed in lycopene-accumulating E. coli BL21(DE3) carrying pACCRT-EIB
T1 sequence (A0A7I8I611 1-652): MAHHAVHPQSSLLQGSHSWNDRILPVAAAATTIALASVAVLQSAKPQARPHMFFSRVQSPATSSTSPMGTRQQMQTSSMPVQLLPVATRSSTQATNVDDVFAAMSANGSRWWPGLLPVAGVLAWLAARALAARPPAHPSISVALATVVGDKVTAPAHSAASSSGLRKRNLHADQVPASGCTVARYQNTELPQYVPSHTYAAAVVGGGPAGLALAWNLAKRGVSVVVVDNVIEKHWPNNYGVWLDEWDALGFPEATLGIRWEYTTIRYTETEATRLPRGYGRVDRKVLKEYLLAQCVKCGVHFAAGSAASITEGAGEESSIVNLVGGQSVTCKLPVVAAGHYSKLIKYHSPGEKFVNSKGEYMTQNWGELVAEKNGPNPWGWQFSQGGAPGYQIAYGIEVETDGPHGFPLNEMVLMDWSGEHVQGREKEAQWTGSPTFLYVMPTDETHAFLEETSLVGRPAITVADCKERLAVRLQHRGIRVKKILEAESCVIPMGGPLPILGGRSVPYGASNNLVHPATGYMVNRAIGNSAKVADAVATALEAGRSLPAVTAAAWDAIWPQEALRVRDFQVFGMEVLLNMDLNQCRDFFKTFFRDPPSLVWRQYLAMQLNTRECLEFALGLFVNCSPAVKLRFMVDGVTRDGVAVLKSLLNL
Experiment: in vivo conversion in lycopene-accumulating E. coli, HPLC of carotenoid extracts
Assay type: cell-based
Conditions: co-expression with Pantoea ananatis crtE, crtB, crtI; 48 h at 21°C after IPTG

## CC(C)=CCC/C(C)=C/C=C/C(C)=C/C=C/C(C)=C/C=C/C=C(C)/C=C/C=C(C)/C=C/C=C(\C)CCC=C(C)C [lycopene]
  in vivo conversion in lycopene-accumulating E. coli, HPLC of carotenoid extracts: This indicates that EgLCY is a lycopene β-cyclase that converts lycopene to β-carotene.

## CC1=C(/C=C/C(C)=C/C=C/C(C)=C/C=C/C=C(C)/C=C/C=C(C)/C=C/C2=C(C)CCCC2(C)C)C(C)(C)CCC1 [β-carotene]
  in vivo conversion in lycopene-accumulating E. coli, HPLC of carotenoid extracts: accumulated β-carotene as the main carotenoid when the EgLCY gene was co-expressed

From article PMC8678482, “Suppression of the Lycopene Cyclase Gene Causes Downregulation of Ascorbate Peroxidase Activity and Decreased Glutathione Pool Size, Leading to H2O2 Accumulation in Euglena gracilis” (Frontiers in Plant Science, 2021)
